According to US8765722B2 (priority 2009, dated 2014):

Test system: human hepatoma Huh-7 cell line harboring a HCV replicon
Assay: microbe, parasite or virus in culture
Format: cell-based
Conditions: for EC50 / inhibition at 2 µM: Hepatitis C virus; for EC50: Huh-7; for inhibition at 2 µM: Huh-7, 72 h, read-out: % inhibition at 2 μM

| Compound | EC50 [µM] | inhibition at 2 µM [%] | % inhibition at 2 μM [%] |
| --- | --- | --- | --- |
| COP1(=O)CCC(N(c2cc(C#CC(C)(C)C)sc2C(=O)O)C(=O)[C@H]2CC[C@H](C)CC2)CC1 (stereo partly drawn) [Compound 11, 5-(3,3-Dimethyl-but-1-ynyl)-3-[(1-methoxy-1-oxo-1 λ^5phosphinan-4-yl)-(trans-4-methyl-cyclohexanecarbonyl)-amino]-thiophene-2-carboxylic acid] | ≤ 0.5 | 99.8 |  |
| CCOP(C)(=O)Cc1ccc(-c2cc(N(C(=O)[C@H]3CC[C@H](C)CC3)[C@H]3CC[C@H](O)CC3)c(C(=O)O)s2)cc1 (stereo partly shown) [Compound 21] |  | 79.2 |  |
| CCOP(C)(=O)Cc1ccc(-c2cc(N(C(=O)[C@H]3CC[C@H](C)CC3)C3CCC4(CC3)OCCO4)c(C(=O)O)s2)cc1 (stereo partly shown) [Compound 20, 3-[(1,4-Dioxa-spiro[4.5]dec-8-yl)-(4-methyl-cyclohexanecarbonyl)-amino]-5-[4-(ethoxy-methyl-phosphinoylmethyl)-phenyl]-thiophene-2-carboxylic acid] |  | 56.3 |  |
| CCOP(C)(=O)C1(O)CCC(N(c2cc(C#CC(C)(C)C)sc2C(=O)O)C(=O)[C@H]2CC[C@H](C)CC2)CC1 (stereo partly drawn) [Compound 13, 5-(3,3-dimethylbut-1-ynyl)-3-((1r,4r)-N-(4-ethoxy(methyl)phosphoryl)-4-hydroxycyclohexyl)-(trans-4-methylcyclohexanecarboxamido)thiophene-2-carboxylic acid] | ≤ 0.5 | 99.8 |  |
| CC(C)(C)C#Cc1cc(N(C(=O)[C@H]2CC[C@H](C(F)(F)F)CC2)[C@H]2CC[C@H](OP(C)(C)=O)CC2)c(C(=O)O)s1 [Compound 6, 5-(3,3-Dimethyl-but-1-ynyl)-3-[[trans-4-(dimethyl-phosphinoyloxy)-cyclohexyl]-(trans-4-trifluoromethyl-cyclohexanecarbonyl)-amino]-thiophene-2-carboxylic acid] |  | 93.2 |  |
| CCOP(C)(=O)C1(OC)CCC(N(c2cc(C#CC(C)(C)C)sc2C(=O)O)C(=O)[C@H]2CC[C@H](C)CC2)CC1 (stereo partly shown) [Compound 14] | ≤ 0.5 | 99.8 |  |
| 5-(3,3-Dimethyl-but-1-ynyl)-3-[[trans-4-(dimethyl-phosphinoyloxy)-cyclobutyl]-cis-4-methyl-cyclohexanecarbonyl)-amino]-thiophene-2-carboxylic acid [Compound 17] |  |  | 99.5 |
| CC(C)(C#Cc1cc(N(C(=O)[C@H]2CC[C@H](C)CC2)[C@H]2CC[C@H](O)CC2)c(C(=O)O)s1)CCOP(C)(C)=O [Compound 23] | ≤ 0.5 |  |  |
| CC(C)(C)C#Cc1cc(N(C(=O)[C@H]2CC[C@H](C)CC2)[C@H]2CC[C@@H](OP(C)(C)=O)CC2)c(C(=O)O)s1 [Compound 5, 5-(3,3-Dimethyl-but-1-ynyl)-3-[[cis-4-(dimethyl-phosphinoyloxy)-cyclohexyl]-(trans-4-methyl-cyclohexanecarbonyl)-amino]-thiophene-2-carboxylic acid] | ≤ 0.5 | 100 |  |
| CP(=O)(O)Cc1ccc(-c2cc(N(C(=O)[C@H]3CC[C@H](C)CC3)[C@H]3CC[C@H](O)CC3)c(C(=O)O)s2)cc1 [Compound 22] |  | 12.3 |  |
| COP1(=O)CCC(NC2CCC(N(c3cc(C#CC(C)(C)C)sc3C(=O)O)C(=O)[C@H]3CC[C@H](C)CC3)CC2)CC1 (stereo partly drawn) [Compound 9, 5-(3,3-Dimethyl-but-1-ynyl)-3-[[4-(1-methoxy-1-oxo-1λ^5-phosphinan-4-ylamino)-cyclohexyl]-(trans-4-methyl-cyclohexanecarbonyl)-amino]-thiophene-2-carboxylic acid] | ≤ 0.5 | 99.9 |  |
| CCOP(=O)(CCNC1CCC(N(c2cc(C#CC(C)(C)C)sc2C(=O)O)C(=O)[C@H]2CC[C@H](C)CC2)CC1)OCC (stereo partly shown) [Compound 24, 3-(1,4-N-(4-(2-(diethoxyphosphoryl)ethylamino)cyclohexyl)-4-methylcyclohexanecarboxamido)-5-(3,3-dimethylbut-1-ynyl)thiophene-2-carboxylic acid] | ≤ 0.5 |  |  |
| CCP(=O)(CC)OCCN(c1cc(C#CC(C)(C)C)sc1C(=O)O)C(=O)[C@H]1CC[C@H](C)CC1 [Compound 16, 3-[[2-(Diethyl-phosphinoyloxy)-ethyl]-(trans-4-methyl-cyclohexanecarbonyl)-amino]-5-(3,3-dimethyl-but-1-ynyl)-thiophene-2-carboxylic acid] | ≤ 0.5 | 99.5 |  |
| CCP(=O)(CC)O[C@H]1CC[C@H](N(c2cc(C#CC(C)(C)C)sc2C(=O)O)C(=O)[C@H]2CC[C@H](C)CC2)CC1 [Compound 2, 3-[[trans-4-(Diethyl-phosphinoyloxy)-cyclohexyl]-(trans-4-methyl-cyclohexanecarbonyl)-amino]-5-(3,3-dimethyl-but-1-ynyl)-thiophene-2-carboxylic acid] | ≤ 0.5 | 99.8 |  |
| CC(C)(C)C#Cc1cc(N(CCOP(C)(C)=O)C(=O)[C@H]2CC[C@H](C)CC2)c(C(=O)O)s1 [Compound 15, 5-(3,3-Dimethyl-but-1-ynyl)-3-[[2-(dimethyl-phosphinoyloxy)-ethyl]-(trans-4-methyl-cyclohexanecarbonyl)-amino]-thiophene-2-carboxylic acid] | ≤ 0.5 | 98.9 |  |
| CC(C)(C)C#Cc1cc(N(CCP(C)(=O)O)C(=O)[C@H]2CC[C@H](C)CC2)c(C(=O)O)s1 [Compound 19, 5-(3,3-dimethyl-but-1-ynyl)-3-[[2-(hydroxy-methyl-phosphinoyl)-ethyl]-(4-methyl-cyclohexanecarbonyl)-amino]-thiophene-2-carboxylic acid] | ≤ 0.5 | 94.2 |  |
| CC(C)(C)C#Cc1cc(N(C(=O)[C@H]2CC[C@H](C)CC2)C2CCP(=O)(O)CC2)c(C(=O)O)s1 (stereo partly drawn) [Compound 12, 5-(3,3-Dimethyl-but-1-ynyl)-3[(1-hydroxy-1-oxo-1 λ^5phosphinan-4-yl)-(trans-4-methyl-cyclohexanecarbonyl)-amino]-thiophene-2-carboxylic acid] |  | 98.2 |  |
| CP(C)(=O)O[C@H]1CC[C@H](N(c2cc(-c3ccc(-c4cc5ncccn5n4)cc3)sc2C(=O)O)C(=O)[C@H]2CC[C@H](C)CC2)CC1 [Compound 8] | ≤ 0.5 | 99.8 |  |
| CP(C)(=O)O[C@H]1CC[C@H](N(c2cc(-c3ccc(NC(=O)c4cscn4)cc3)sc2C(=O)O)C(=O)[C@H]2CC[C@H](C)CC2)CC1 [Compound 7, 3-[[trans-4-(Dimethyl-phosphinoyloxy)-cyclohexyl]-(trans-4-methyl-cyclohexanecarbonyl)-amino]-5-{4-[(thiazole-4-carbonyl)-amino]-phenyl}-thiophene-2-carboxylic acid] | ≤ 0.5 | 99.8 |  |
| CC(C)(C)C#Cc1cc(N(C(=O)[C@H]2CC[C@H](C)CC2)[C@H]2CC[C@H](OP(C)(=O)c3ccccc3)CC2)c(C(=O)O)s1 (stereo partly drawn) [Compound 3, 5-(3,3-Dimethyl-but-1-ynyl)-3-{(trans-4-methyl-cyclohexanecarbonyl)-[trans-4-(methyl-phenyl-phosphinoyloxy)-cyclohexyl]-amino}-thiophene-2-carboxylic acid] | ≤ 0.5 | 99.6 |  |
| CCOP(C)(=O)CCN(c1cc(C#CC(C)(C)C)sc1C(=O)O)C(=O)[C@H]1CC[C@H](C)CC1 (stereo partly shown) [Compound 18, 5-(3,3-Dimethyl-but-1-ynyl)-3-[[2-(ethoxy-methyl-phosphinoyl)-ethyl]-(4-methyl-cyclohexanecarbonyl)-amino]thiophene-2-carboxy-lic acid] | ≤ 0.5 | 98.8 |  |
| CC(C)(C)C#Cc1cc(N(C(=O)[C@H]2CC[C@H](C)CC2)[C@H]2CC[C@H](OP(=O)(c3ccccc3)c3ccccc3)CC2)c(C(=O)O)s1 [Compound 4, 5-(3,3-Dimethyl-but-1-ynyl)-3-[[trans-4-(diphenyl-phosphinoyloxy)-cyclohexyl]-(trans-4-methyl-cyclohexanecarbonyl)-amino]-thiophene-2-carboxylic acid] |  | 94.7 |  |
| CC(C)(C)C#Cc1cc(N(C(=O)[C@H]2CC[C@H](C)CC2)[C@H]2CC[C@H](OP(C)(C)=O)CC2)c(C(=O)O)s1 [Compound 1, 5-(3,3-Dimethyl-but-1-ynyl)-3-[[trans-4-(dimethyl-phosphinoyloxy)-cyclohexyl]-(trans-4-methyl-cyclohexanecarbonyl)-amino]-thiophene-2-carboxylic acid] | ≤ 0.5 | 99.8 |  |
